Among the data in US20240390355A1, “IRHOM2 INHIBITORS AND USES THEREOF” (NEW YORK SOCIETY FOR THE RELIEF OF THE RUPTURED AND …, priority 2021, published 2024) are IC50 values, retold here.

pIC50: −log10 of the molar value.

Holding throughout (type): cell-based
In assay [1] the test system is KL2 release from HEK-293 cells. The experiment in a line: Secondary screen (Example 3a): PMA-stimulated KL2 release from HEK-293 cells, AP readout. The following applies: Homo sapiens, HEK293, HEK-293 cells expressing KL2-AP, PMA 500 ng/mL, 2 h, read-out: Secondary Screen XC50 KL2. As for the experimental part: (§1) Two separate screens to identify novel small molecule inhibitors of iRhom2/ADAM17 activity were developed. […] Therefore, the primary screen for small molecule inhibitors of iRhom2/ADAM17 was a screen for inhibitors that blocked the release of TNFα from LPS-stimulated THP-1 human myeloid cells, a process that depends on iRhom2 and ADAM17. Since the release of TNFα from THP-1 cells can be blocked at many stages of the LPS/TLR4/iRhom2/ADAM17 pathway, a secondary screen was performed for another iRhom2/ADAM17 selective substrate, Kit-ligand 2 (KL-2) (Maretzky T et al. (July 2013), “iRhom2 controls the substrate selectivity of stimulated ADAM17-dependent ectodomain shedding”, PNAS 110(28): 11433-11438) in a different human cell type, human embryonic kidney cells (HEK 293).
(§2) First, expression plasmids for alkaline phosphatase (AP)-fused KL2 and TGFα were designed and generated through gene synthesis followed by subcloning into the pcDNA3.1(+)/Hygro expression vector. […] Subsequently, DNA amplifications were performed to obtain sufficient amounts of the expression vectors. The quality of DNA and gene sequences were confirmed through restriction digest and Sanger sequencing. In parallel, cell culture of THP-1 and HEK-293 cells was initiated. Master and working cell banks were prepared. Both cell lines were scaled up and transfected with the respective constructs by electroporation. During cell culturing, cell density and viability were monitored to ensure optimal conditions for the transfections. After PMA stimulation, AP-coupled KL2 or TGFα were detected by measurement of AP activity in the supernatant. […] In contrast, THP-1 cells turned out to be not a suitable transfection host resulting in a loss of cell viability after transfection. The decision was made to proceed with HEK-293 for both selectivity assays and to establish polyclonal cell lines stably expressing AP-coupled KL2 or TGFα.
(§3) After electroporation, cells were further cultured in presence of selection antibiotics, hygromycin B, to generate stably transfected polyclonal cell pools. For both assays, KL2 and TGFα shedding, the respective selected pool turned out to be suitable. Final assay conditions were determined for the selected pools. For all experiments, batimastat (30 μM) was used as positive control for full inhibition of KL2 or TGFα shedding.
(§4) 60 μL of cells (40,000/well) were added to a sterile 384-well plate. After incubation overnight at 37° C. (5% CO2), 50 μL medium were removed and 20 μL of prediluted compounds were added to the cells. After incubation for 15 min, 20 μL of PMA (500 ng/mL final conc.) were added. The cells were incubated for 2 h at 37° C. (5% CO2). Then, 20 μL of the supernatant was transferred to a fresh plate and 20 μL of pNPP (5 mM final conc.) was added. AP reaction was performed for 1 h at RT. The reaction was stopped by addition of 20 μL of NaOH (1 M final conc.) and the absorbance of pNP was measured at 405 nm.

Assay [2] has as its system TGFα release from HEK-293 cells. Nature of the assay: Counter screen (Example 4a): PMA-stimulated TGFα release from HEK-293 cells, AP readout. The following applies: Homo sapiens, HEK293, HEK-293 cells expressing TGFα-AP, PMA 100 ng/mL, 2 h, read-out: Counter Screen XC50 TGFα. As to the method: A tertiary counterscreen was also performed to monitor the release of TGFα, which is a substrate of iRhom1/ADAM17 and iRhom2/ADAM17, so its release should not be blocked by an iRhom2-selective inhibitor (Maretzky T et al. (July 2013), “iRhom2 controls the substrate selectivity of stimulated ADAM17-dependent ectodomain shedding”, PNAS 110(28): 11433-11438; and Li X et al. (May 2015), “iRhoms 1 and 2 are essential upstream regulators of ADAM17-dependent EGFR signaling”, PNAS 112(19): 6080-6085).
as §2, §3
as §4, with “of cells (20,000/well) were added” for “of cells (40,000/well) were added”, “of PMA (100 ng/mL final” for “of PMA (500 ng/mL final”, “was added. The AP reaction” for “was added. AP reaction”

For assay [3], the system named is TNFα release from THP-1 cells. The experiment in a line: Primary screen (Example 1a): LPS-stimulated TNFα release from THP-1 cells, HTRF. The following applies: Homo sapiens, 100 ng/mL LPS, 3 h, normalised to 50 μM Batimastat, read-out: Primary Screen XC50 TNFα. As for the experimental part: as §1
THP-1 cells were plated in 384 or 1,536 wells and transferred on the ultra-high throughput screening (uHTS) platform Mark III, and TNFα shedding was initiated by LPS stimulation of THP-1 cells. The extent of released TNFα was detected with the corresponding HTRF antibodies labeled with europium cryptate (donor) and d2 (acceptor). The HTRF signal was generated by proximity of europium cryptate and d2. All detection reagents were purchased from Cisbio. TNFα detection was performed according to the manufacturer's protocol (Product Insert for Cisbio TNFα (h) Kit Part #62HTNFAPEG & 62HTNFAPEH;
7.5 nL compound and controls in DMSO [10 μM in assay; 0.25% DMSO in 3 [μL Assay] were dissolved in 2 μL cell suspension [2.4E6/mL; 4800 cells/well; culture w/o PenStrep], pre-incubated at 37° C., 5% CO2, for 15 min with 1 μL LPS [100 ng/mL in 3 μL assay]. The cells were incubated at 37° C., 5% CO2, for 3 h with 2 μL of the HTRF-mix [1:300 f.c.]. After an incubation at room temperature for 2 h or longer, the HTRF readout was performed. Then data evaluation for normalization against the 50 μM Batimastat control (=100% […]) was applied. As an additional control, 300 nM Batimastat was used to monitor performance of cells and assay sensitivity over time.
On the technique in general: TR-FRET usually uses a lanthanide donor and a delayed reading to cut background.

Consider `COc1ccc(Nc2nc(NCCCO)c3ccccc3n2)cc1` [Compound 24], for which the pIC50 in assay [1] is < 3.89; in assay [2], < 3.89; in assay [3], 5.96.

With `C=C(C)Cn1c(=O)nc(N)c2c(-c3ccc(OC)cc3)csc21` [Compound 27], the figures for the pIC50 in assay [1], in assay [2] and in assay [3] were < 3.89, < 3.89 and > 6.10, respectively.

`Cc1n[nH]c2c1C(c1ccccc1OC(F)F)C(C#N)=C(N)O2` (stereo not drawn) [Compound 31]: the pIC50 in assay [1] was 4.49; in assay [2], < 3.89; in assay [3], 4.46.

Take `CC(C)c1nccc(-c2c(-c3ccccc3)ncn2C[C@H]2CCCO2)n1` [Compound 41]: the figures for the pIC50 in assay [1], in assay [2] and in assay [3] were < 3.89, < 3.89 and 4.94, respectively.

As to `CC(C)c1nccc(-c2c(-c3ccccc3)ncn2C[C@H]2CCCN2)n1` [Compound 40], the pIC50 in assay [1] is < 3.89; in assay [2], < 3.89; in assay [3] it was 4.68.

In the case of `c1ccc(-c2ncn(CCc3c[nH]cn3)c2-c2ccncc2)cc1` [Compound 36], the pIC50 in assay [1] was < 3.89; in assay [2] it was < 3.89; in assay [3], 4.72.

Take `Cc1ccccc1C(=O)N1CCC(Cc2ccccc2)CC1` [Compound 1]: the pIC50 is 5.59 in assay [1], < 3.89 in assay [2] and 4.99 in assay [3].

Take `Cc1csc(CN2CCN(C(=O)c3c(F)cccc3Cl)CC2)n1` [Compound 8]: the pIC50 in assay [1] was < 3.89; in assay [2], < 3.89; in assay [3], 5.72.

As to `Fc1ccc(Nc2nc3nonc3nc2Nc2ccc(F)cc2F)c(F)c1` [Compound 26], the pIC50 is 4.65 in assay [1], 4.15 in assay [2] and 5.85 in assay [3].

Take `O=C(c1ccccc1F)N1CCN(Cc2nc(C3CC3)cs2)CC1` [Compound 9]: the pIC50 was < 3.89 in assay [1], < 3.89 in assay [2] and 4.56 in assay [3].

Turning to `Nc1cccc(-c2cnc3ccc(NCc4cccs4)nn23)c1` [Compound 21], the pIC50 is 3.92 in assay [1], < 3.89 in assay [2] and 5.89 in assay [3].

In the case of `CC(=O)c1cccc(Nc2nc(NCC3CCCO3)c3ccccc3n2)c1` (stereo not drawn) [Compound 25], the pIC50 is 4.26 in assay [1], < 3.89 in assay [2] and 5.25 in assay [3].
